Data on two molecules can be found in publication PMC11990322, “Cholinium-Based Ionic Liquids Modulate Protein Stability: A Comparative Study of Enzymes and Albumins” (Molecules, 2025).

One experiment addresses T1, lysozyme (Gallus gallus, UniProt P00698).
T1 construct: gene LYZ; docking model 6LYZ and six Trp agree
Briefly: Trp fluorescence quenching, double-log plot. It is filed as binding. The conditions noted are these: 10 mM PBS, 1 mg/mL enzyme, excitation 295 nm. From the text:
Trp fluorescence quenching, double-log plot on lysozyme

In the next experiment the target is T2, α-chymotrypsin (Bos taurus, UniProt P00766).
T2 construct: docking model 1YPH agrees
Nature of the experiment: Trp fluorescence quenching, double-log plot. The format is binding. The following applies: 10 mM PBS, 1 mg/mL enzyme, excitation 295 nm. From the text:
Trp fluorescence quenching, double-log plot on α-chymotrypsin

T1 sequence (P00698 19-147): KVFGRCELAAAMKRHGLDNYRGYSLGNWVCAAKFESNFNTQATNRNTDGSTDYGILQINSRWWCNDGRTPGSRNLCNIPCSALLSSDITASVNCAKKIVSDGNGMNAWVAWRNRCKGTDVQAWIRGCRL

As for `C[N+](C)(C)CCO.O=C([O-])CCC(=O)O` [[Ch][Suc]], the “Kb/M^-1 a” value on lysozyme (n = 1.15, ion-pair salt titrated as ligand) was found to be 31.64 ± 6.01 M⁻¹; on α-chymotrypsin (n = 1.19, ion-pair salt titrated as ligand) it was 30.95 ± 5.69 M⁻¹.

With `CC(C)[C@H](N)C(=O)O` [[Ch][Val]], the “Kb/M^-1 a” value at lysozyme (n = 0.99, ion-pair salt titrated as ligand, ligand unfolds the tertiary structure) was determined as 73.84 ± 10.34 M⁻¹; at α-chymotrypsin (n = 1.40, ion-pair salt titrated as ligand, ligand perturbs the tertiary structure) it was 280.6 ± 30.05 M⁻¹.
